In patent US8906115B2, “Method for the antimicrobial finishing of textiles and fibers” (Sanitized AG, priority 2006, dated 2014):

Tested on: Staphylococcus aureus 6538 P
Assay: antibacterial effect / germ reduction of finished textiles after washing, test standard not stated
Type: cell-based
Details: less pronounced than tannic acid, gallic acid, stearic acid or L-phenylalanine
Method: The two samples finished in this way are washed at 40° C. and dried between the washing cycles. After 20 and 30 washing cycles, the antibacterial effect against Staphylococcus aureus 6538 P is tested.
In an experimental finishing. 14 kilograms of an orange colored tricot made of polyester/polyamide/elastan are prewashed at 60° C., then 280 grams of L-phenylalanine and 110 liters of water are added. Allow to prerun for 10 minutes, heated to 60° C. at 3° C. per minute and left to run for 15 minutes at 60° C. 80 grams of Sanitized T 99-19 in 2 liters of water are added and left to run for a further 30 minutes at 60° C. The liquor is cooled to 35° C. and then drawn off. 40 liters of water for rinsing are added, left to run for two minutes and the rinse water is drawn off. The textile is discharged via press-off rolls and dried on a tenter at 120° C. After 50 washing cycles in accordance with EN ISO 6330 (6A), washed with the colorfast detergent according to ECE 77, a sample achieves a germ count reduction of factor 100 (log reduction=2.0) compared with the inoculum.

| SMILES | antimicrobial effect after washing when used as primer (P), in words |
| --- | --- |
| CCCCCCCCCCCCCCCCCCN [octadecylamine] | improvement in the antimicrobial effect after washing |
| O=C(O)c1ccc(C(=O)O)cc1 [terephthalic acid, benzene-1,4-dicarboxyolic acid] | improvement in the antimicrobial effect after washing |
